According to the supplement of paper PMC11061612:

Columns and labels:
AZD1775 = compound: C=CCn1c(=O)c2cnc(Nc3ccc(N4CCN(C)CC4)cc3)nc2n1-c1cccc(C(C)(C)O)n1 [AZD1775]; details: max 3 µM
How it was run: (§1)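 Viability was measured with CellTiter-Glo 2.0 luminescence after 72 hours of dosing at a final DMSO of typically 0.2%, and scaled between blank-well and DMSO-well means. Beforehand, cancer cell lines sat 24 hours at 37°C and 5% CO2 in 1536-well plates in 7.5 μl DMEM/F12 or RPMI with 10% FBS. A non-linear mixed effects model fitted two-parameter logistic curves to the dose responses. The single-agent IC50 comes from these fits.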

SRA737 = compound: N#Cc1cnc(Nc2cc(NC[C@H]3CNCCO3)c(C(F)(F)F)cn2)cn1 [SRA737]; details: max 10 µM
How it was run: as §1

Lapatinib = compound: CS(=O)(=O)CCNCc1ccc(-c2ccc3ncnc(Nc4ccc(OCc5cccc(F)c5)c(Cl)c4)c3c2)o1 [Lapatinib]; details: max 10 µM
How it was run: as §1

AZD4320 = compound: CN(CC[C@H](CSC1=CC=CC=C1)NC2=C(C=C(C=C2)S(=O)(=O)NC(=O)C3=CC=C(C=C3)N4CCC(CC4)[C@H](C5=CC=CC=C5C6=CC=C(C=C6)Cl)O)S(=O)(=O)C(F)(F)F)CCO [AZD4320]; details: max 1 µM
How it was run: as §1

SN-38 = compound: CCc1c2c(nc3ccc(O)cc13)-c1cc3c(c(=O)n1C2)COC(=O)[C@]3(O)CC [SN-38]; details: max 0.3 µM
How it was run: as §1

Carboplatin = compound: C1CC(C1)(C(=O)[O-])C(=O)[O-].N.N.[Pt+2] [Carboplatin]; details: max 10 µM
How it was run: as §1

Gefitinib = compound: COc1cc2ncnc(Nc3ccc(F)c(Cl)c3)c2cc1OCCCN1CCOCC1 [Gefitinib]; details: max 10 µM
How it was run: as §1

Palbociclib = compound: CC(=O)c1c(C)c2cnc(Nc3ccc(N4CCNCC4)cn3)nc2n(C2CCCC2)c1=O [Palbociclib]; details: max 10 µM
How it was run: as §1

Dasatinib = compound: CC1=C(C(=CC=C1)Cl)NC(=O)C2=CN=C(S2)NC3=CC(=NC(=N3)C)N4CCN(CC4)CCO [Dasatinib]; details: max 2 µM
How it was run: as §1

Trametinib = compound: CC(=O)Nc1cccc(-n2c(=O)n(C3CC3)c(=O)c3c(Nc4ccc(I)cc4F)n(C)c(=O)c(C)c32)c1 [Trametinib]; details: max 1 µM
How it was run: as §1

AZD5363 = compound: C1CN(CCC1(C(=O)N[C@@H](CCO)C2=CC=C(C=C2)Cl)N)C3=NC=NC4=C3C=CN4 [AZD5363]; details: max 10 µM
How it was run: as §1

AZD5153 = compound: COc1nnc2ccc(N3CCC(c4ccc(OCCN5CCN(C)C(=O)[C@H]5C)cc4)CC3)nn12 [AZD5153]; details: max 1 µM
How it was run: as §1

MK-2206 = compound: NC1(c2ccc(-c3nc4ccn5c(=O)[nH]nc5c4cc3-c3ccccc3)cc2)CCC1 [MK-2206]; details: max 10 µM
How it was run: as §1

AZD1390 = compound: CC(C)n1c(=O)n(C)c2cnc3cc(F)c(-c4ccc(OCCCN5CCCCC5)nc4)cc3c21 [AZD1390]; details: max 0.3 µM
How it was run: as §1

Olaparib = compound: O=C(c1cc(Cc2n[nH]c(=O)c3ccccc23)ccc1F)N1CCN(C(=O)C2CC2)CC1 [Olaparib]; details: max 10 µM
How it was run: as §1

[1] = compound: O=C(Nc1ccc2[nH]nc(-c3ccncc3)c2c1)[C@@H]1CCN(CC(=O)N2CCN(c3ccc(-c4ncccn4)cc3)CC2)C1; details: max 5 µM
How it was run: as §1

Savolitinib = compound: C[C@@H](c1ccc2nccn2c1)n1nnc2ncc(-c3cnn(C)c3)nc21 [Savolitinib]; details: max 1 µM
How it was run: as §1

Selumetinib = compound: Cn1cnc2c(F)c(Nc3ccc(Br)cc3Cl)c(C(=O)NOCCO)cc21 [Selumetinib]; details: max 10 µM
How it was run: as §1

Etoposide = compound: COc1cc([C@@H]2c3cc4c(cc3[C@@H](O[C@@H]3O[C@@H]5CO[C@@H](C)O[C@H]5[C@H](O)[C@H]3O)[C@H]3COC(=O)[C@H]23)OCO4)cc(OC)c1O [Etoposide]; details: max 10 µM
How it was run: as §1

Crizotinib = compound: C[C@@H](Oc1cc(-c2cnn(C3CCNCC3)c2)cnc1N)c1c(Cl)ccc(F)c1Cl [Crizotinib]; details: max 10 µM
How it was run: as §1

AZD7648 = compound: Cc1cc2ncnn2cc1Nc1ncc2c(n1)n(C1CCOCC1)c(=O)n2C [AZD7648]; details: max 10 µM
How it was run: as §1

AZD2811 = compound: CCN(CCO)CCCOc1ccc2c(Nc3cc(CC(=O)Nc4cccc(F)c4)[nH]n3)ncnc2c1 [AZD2811]; details: max 1 µM
How it was run: as §1

Gemcitabine = compound: Nc1ccn([C@@H]2O[C@H](CO)[C@@H](O)C2(F)F)c(=O)n1 [Gemcitabine]; details: max 0.3 µM
How it was run: as §1

Venetoclax = compound: CC1(C)CCC(CN2CCN(c3ccc(C(=O)NS(=O)(=O)c4ccc(NCC5CCOCC5)c([N+](=O)[O-])c4)c(Oc4cnc5[nH]ccc5c4)c3)CC2)=C(c2ccc(Cl)cc2)C1 [Venetoclax]; details: max 1 µM
How it was run: as §1

Doxorubicin = compound: COc1cccc2c1C(=O)c1c(O)c3c(c(O)c1C2=O)C[C@@](O)(C(=O)CO)C[C@@H]3O[C@H]1C[C@H](N)[C@H](O)[C@H](C)O1 [Doxorubicin]; details: max 1 µM
How it was run: as §1

AZD8186 = compound: C[C@@H](Nc1cc(F)cc(F)c1)c1cc(C(=O)N(C)C)cc2c(=O)cc(N3CCOCC3)oc12 [AZD8186]; details: max 10 µM
How it was run: as §1

Prexasertib = compound: COc1cccc(OCCCN)c1-c1cc(Nc2cnc(C#N)cn2)n[nH]1 [Prexasertib]; details: max 1 µM
How it was run: as §1

SG3199 = compound: CC1=CN2[C@@H](C1)C=NC3=CC(=C(C=C3C2=O)OC)OCCCCCOC4=C(C=C5C(=C4)N=C[C@@H]6CC(=CN6C5=O)C)OC [SG3199]; details: max 0.001 µM
How it was run: as §1

Alisertib = compound: COc1cc(Nc2ncc3c(n2)-c2ccc(Cl)cc2C(c2c(F)cccc2OC)=NC3)ccc1C(=O)O [Alisertib]; details: max 10 µM
How it was run: as §1

AZD5991 = compound: Cc1c2c(nn1C)CSCc1cc(n(C)n1)CSc1cc(c3ccccc3c1)OCCCc1c(C(=O)O)n(C)c3c-2c(Cl)ccc13 [AZD5991]; details: max 1 µM
How it was run: as §1

AZD0156 = compound: CN(C)CCCOc1ccc(-c2ccc3ncc4c(c3c2)n(C2CCOCC2)c(=O)n4C)cn1 [AZD0156]; details: max 3 µM
How it was run: as §1

Paclitaxel = compound: CC(=O)O[C@H]1C(=O)[C@@]2(C)[C@H]([C@H](OC(=O)c3ccccc3)[C@]3(O)C[C@H](OC(=O)[C@H](O)[C@@H](NC(=O)c4ccccc4)c4ccccc4)C(C)=C1C3(C)C)[C@]1(OC(C)=O)CO[C@@H]1C[C@@H]2O [Paclitaxel]; details: max 3 µM
How it was run: as §1

5-Fluorouracil = compound: O=c1[nH]cc(F)c(=O)[nH]1 [5-Fluorouracil]; details: max 20 µM
How it was run: as §1

Taselisib = compound: Cc1nc(-c2cn3c(n2)-c2ccc(-c4cnn(C(C)(C)C(N)=O)c4)cc2OCC3)n(C(C)C)n1 [Taselisib]; details: max 10 µM
How it was run: as §1

AZD6738 = compound: C[C@@H]1COCCN1C2=NC(=NC(=C2)C3(CC3)[S@](=N)(=O)C)C4=C5C=CNC5=NC=C4 [AZD6738]; details: max 10 µM
How it was run: as §1

Cell Line | IC50, cell viability 72 h (AZD1775) [µM] | IC50, cell viability 72 h (SRA737) [µM] | IC50, cell viability 72 h (Lapatinib) [µM] | IC50, cell viability 72 h (AZD4320) [µM] | IC50, cell viability 72 h (SN-38) [µM] | IC50, cell viability 72 h (Carboplatin) [µM] | IC50, cell viability 72 h (Gefitinib) [µM] | IC50, cell viability 72 h (Palbociclib) [µM] | IC50, cell viability 72 h (Dasatinib) [µM] | IC50, cell viability 72 h (Trametinib) [µM] | IC50, cell viability 72 h (AZD5363) [µM] | IC50, cell viability 72 h (AZD5153) [µM] | IC50, cell viability 72 h (MK-2206) [µM] | IC50, cell viability 72 h (AZD1390) [µM] | IC50, cell viability 72 h (Olaparib) [µM] | IC50, cell viability 72 h [1] [µM] | IC50, cell viability 72 h (Savolitinib) [µM] | IC50, cell viability 72 h (Selumetinib) [µM] | IC50, cell viability 72 h (Etoposide) [µM] | IC50, cell viability 72 h (Crizotinib) [µM] | IC50, cell viability 72 h (AZD7648) [µM] | IC50, cell viability 72 h (AZD2811) [µM] | IC50, cell viability 72 h (Gemcitabine) [µM] | IC50, cell viability 72 h (Venetoclax) [µM] | IC50, cell viability 72 h (Doxorubicin) [µM] | IC50, cell viability 72 h (AZD8186) [µM] | IC50, cell viability 72 h (Prexasertib) [µM] | IC50, cell viability 72 h (SG3199) [µM] | IC50, cell viability 72 h (Alisertib) [µM] | IC50, cell viability 72 h (AZD5991) [µM] | IC50, cell viability 72 h (AZD0156) [µM] | IC50, cell viability 72 h (Paclitaxel) [µM] | IC50, cell viability 72 h (5-Fluorouracil) [µM] | IC50, cell viability 72 h (Taselisib) [µM] | IC50, cell viability 72 h (AZD6738) [µM]
NCI-H1435 (Non-Small Cell Lung Carcinoma) | > 3 | > 10 | > 10 | 0.621 | > 0.3 | > 10 | > 10 | > 10 | > 2 | > 1 | > 10 | > 1 | > 10 | > 0.3 | > 10 | > 5 | > 1 | > 10 | > 10 | > 10 | > 10 | > 1 | > 0.3 | > 1 | > 1 | > 10 | > 1 | > 0.001 | > 10 | > 1 | > 3 | > 3 | > 20 | > 10 | > 10
NCI-H1648 (Lung Adenocarcinoma) | 1.31 | > 10 | 1.99 | > 1 | 0.0596 | > 10 | 2.34 | > 10 | 0.373 | 0.0289 | 9.59 | 0.203 | 9.83 | > 0.3 | > 10 | > 5 | > 1 | > 10 | > 10 | 8.99 | > 10 | > 1 | > 0.3 | > 1 | > 1 | > 10 | 0.156 | > 0.001 | 7.89 | > 1 | > 3 | 0.0124 | > 20 | 0.146 | 4.85
